# Measured values published in patent US7732185B2, “Plasmid having response to dioxins, transgenic cell for measuring dioxins, dioxins sensing method and biosensor using the same” (priority 2004, dated 2010).
# Legend:
# Assay type in all cases: cell-based, mouse
# [1] = system: aryl hydrocarbon receptor (AhR); assay: DRESSA method: SEAP protein activity in conditioned medium of HeDS cells; settings: for induction of SEAP protein activity compared with DMSO control: HeDS cells stimulated by 1 μM
# Description: Each cell clump is treated with trypsin to be removed, transferred to a 96-well culture plate every two wells, and cultured for one week continuously (S5). After the cells become confluent, the culture medium of each well is exchanged with 100 μl of α-MEM containing 1% FBS, and the cells are cultured for 24 hours in the presence or absence of 10 pM TCDD. Then, using 5 μl of the conditioned medium, a predetermined SEAP assay is performed to establish HeDS cells that react with a low concentration of dioxin with the highest sensitivity, and the cells are used for a dioxins sensing bioassay (S6). In this specification, the bioassay method is referred to as DRE-based Sensing of dioxin via Secreted Alkaline phosphatase (hereinafter, abbreviated as the DRESSA method).
# Further, AhR14 forms a complex with Arnt15 that is a coactivator, enters the nuclear, and is combined with MMTV-DRE11 to activate. As a result, transcription of downstream SEAP gene 12 is promoted, messenger RNA 16 is produced and translated to protein 18 with ribosome 17, and the protein is promptly secreted outside the cell as a SEAP protein. Accordingly, by measuring the activity of the SEAP protein in the conditioned medium, it is possible to determine a level of dioxins to which the cells are exposed. First, HeDS cells with a concentration of 2×10^4/well are seeded in each well of a 96-well culture plate. As a culture medium, 100 μl of A-MEM containing […] is filled into each well (S1). After the cells are cultured for 24 hours to be fixed to the bottom of each well, the culture medium is exchanged, and 1 μl of a liquid sample containing TCDD is added (S2). After culturing for 24 hours, the conditioned medium is sampled every 5 μl (S3), and the SEAP protein activity is measured by procedures as described below.
# (§1) The SEAP protein activity in the conditioned medium is determined as described below. To 5 μl of the conditioned medium is added 15 μl of buffer, the resultant is incubated at 65° C. for 30 minutes, and endogenous alkaline phosphatase activity is inactivated. Added further is 20 μl of buffer containing L-homoarginine that is an inhibitor of endogenous alkaline phosphatase, and the resultant is kept standing for 5 minutes. Then, 15 μl of substrate CSPD is added thereto, the resultant is kept standing at a dark place for 30 minutes, and the degree of chemical emission is measured by a luminometer.
# [2] = system: aryl hydrocarbon receptor (AhR); assay: SEAP reporter plasmid comparison of sensor sequences (DRE, MMTV-DRE, MMTV) in Hepa-1c1c7 cells stimulated by TCDD
# Description: SEAP reporter plasmids having MMTV-DRE or only DRE as a sensor sequence were prepared, and each of the plasmids was gene-introduced to a Hepa-1c1c7 cell. In addition, details of gene introduction will be described later. The cells were stimulated by TCDD, and increases in SEAP activity were compared. In the cell to which was introduced the SEAP reporter plasmid only having DRE as a sensor sequence, the SEAP activity increased by 4.5 times by the stimulus of TCDD.
# In contrast thereto, in the cell (Hepa 1c1c7-DRE-SEAP cell, hereinafter, referred to as an HeDS cell) to which was introduced the SEAP reporter plasmid having MMTV-DRE as a sensor sequence, the SEAP activity increased by 43.2 times by the stimulus of TCDD. […] This means that the sequence of MMTV strongly amplifies the response of DRE to dioxin. The high reactivity of MMTV-DRE enables a fast assay with low cost.
# as §1
# [3] = system: aryl hydrocarbon receptor (AhR); assay: fast DRESSA method: floating HeDS cells, SEAP protein activity in conditioned medium
# Description: as §1
# In order to perform the above-mentioned DRESSA method easily and economically in a short time, it is possible to simplify the sensing procedures as described above, as shown in FIG. 1a. In other words, 50 μl of the culture medium containing 1 μl of sample is filled into each well of a 96-well culture plate, and immediately, HeDS cells floated in the culture medium are added (total 100 μl) (S1).
# The conditioned medium is sampled three to four hours later (S2), and the SEAP protein activity is measured (S3). By using this scheme, it is possible to sense 1 pM of TCDD regarded as the sensing limit of the current method within four to five hours. Hereinafter, this method is referred to as a fast DRESSA method. The fast DRESSA method has no difference in sensing sensitivity from the DRESSA method.
structure (smiles),measurement,setting,value
"c1ccc2c(c1)cc1ccc3cccc4ccc2c1c34 [B[a]P, benzo[a]pyrene]",induction of SEAP protein activity compared with DMSO control,[1],remarkable induction
"Cc1ccc2cc3c(ccc4ccccc43)c3c2c1CC3 [3-MC, 3-methylcholanthrene]",induction of SEAP protein activity compared with DMSO control,[1],remarkable induction
"Clc1cc2c(cc1Cl)Oc1cc(Cl)c(Cl)cc1O2 [TCDD, 2,3,7,8-tetrachlorodibenzo-p-dioxin]",increase in SEAP activity by the stimulus of TCDD,[2]; HeDS cell: SEAP reporter plasmid having MMTV-DRE as sensor sequence,43.2 times
same,increase in SEAP activity by the stimulus of TCDD,[2]; Hepa-1c1c7 cell with SEAP reporter plasmid only having DRE as sensor sequence,4.5 times
same,increase in SEAP activity by the stimulus of TCDD,[2]; cell with SEAP reporter plasmid only having MMTV as sensor sequence,did not increase
same,time after addition at which significant increases in SEAP protein activity are observed,"[1]; 6 pM TCDD, DMSO control, traced up to 10 hours",four
same,sensing with a reduced number of cells,"[1]; 1 nM TCDD, 50 cells in one well of a 96-well plate",can be sensed sufficiently
same,concentration of TCDD possible to sense,"[1]; 5,000 HeDS cells",0.5 pM
same,concentration at which significant increases in SEAP protein activity were already observed,[1]; HeDS cells exposed to 0 to 1 pM TCDD,0.25 pM
same,concentration up to which SEAP protein activity increases dependent on the concentration,"[1]; HeDS cells, culture medium",up to 100 pM
same,time for which increases in SEAP protein activity continued before reaching equilibrium,"[1]; TCDD stimulation, traced up to 72 hours",48 h
same,time after addition at which significant increases in SEAP protein activity were already observed,[3]; 6 pM TCDD,three
same,time after addition at which significant increases in SEAP protein activity were already observed,[3]; 1 nM TCDD,three
same,concentration of TCDD possible to sense,[3]; within four to five hours,1 pM
"O=c1cc(-c2ccccc2)oc2ccc3ccccc3c12 [βNF, β-naphthoflavone]",induction of SEAP protein activity compared with DMSO control,[1],remarkable induction
